Measured values: patent US5552384A, “Antiherpes compositions and method of use” (priority 1990, dated 1996)
Like-named read-outs stand apart in the source and are kept apart here. Square brackets hold non-standard residues; d marks the D form. Peptide text beside a SMILES is read from it. * marks the point of attachment. Asp(3,3-(CH2)4) = N[C@H](C(=O)O)C1(C(=O)O)CCCC1; Leu(γ-Me)ol = CC(C)(C)C[C@@H](CO)N*; Hydrocinnamoyl = O=C(CCc1ccccc1)*; Tle = CC(C)(C)[C@H](N)C(=O)O; NMeV = CN[C@H](C(=O)O)C(C)C; Pyrrolidide = C1CCN(*)C1

What was measured:
HSV-2 = assay: microbe, parasite or virus in culture; type: cell-based, HSV-2 (strain HG-52)
Description: BHK-21/C13 cells (ATCC CCL 10) are incubated for two days in 150 cm^2 T-flasks (1.5×10^6 cells/flask) with alpha-MEM medium (Gibco Canada Inc., Burlington, Ontario, Canada) supplemented with 8% (v/v) fetal bovine serum (FBS, Gibco Canada Inc.). The cells are trypsinized and then transferred to fresh media in a 24 well plate to give 2.5×10^5 cells in 750 μL of media per well. The cells are incubated at 37° C. for a period of 6 hours to allow them to adhere to the plate. Thereafter, the cells are washed once with 500 μL of alpha-MEM supplemented with 0.5% (v/v) FBS and then incubated with 750 μL of the same media (low serum) for 3 days. After this period of serum starvation, the low serum medium is removed and the cells are incubated in 500 μL of BBMT for 2 to 3 hours. [BBMT medium is described by P. Brazeau et al., Proc. Natl. Acad. Sci. USA, 79, 7909 (1982).] Thereafter, the cells are infected with HSV-2 (multiplicity of infection=0.02 PFU/cell) in 100 μL of BBMT medium. (Note: The HSV-2 used was strain HG-52, see Y. Langelier and G. Buttin, J. Gen. Virol., 57, 21 (1981); the virus was stored at -80° C.) Following 1 hour of virus adsorption at 37° C., the media is removed and the cells are washed with BBMT (3×250 μL). The cells in each well are incubated with or without (control) appropriate concentrations of the test agent dissolved in 200 μL of BBMT medium. After 29 hours of incubation at 37° C., the infected cells are harvested by first freezing the plate at -80° C., followed by thawing. The cells in each well are scraped off the surface of the well with the help of the melting ice fragments. After complete thawing, the cell suspensions are collected and each well is rinsed with 150 μL of BBMT medium. The viral sample (suspension plus washing) is sonicated gently for 4 minutes at 4° C. Cell debris are removed by centrifugation (1000 times gravity for 10 minutes at 4° C.). The supernatant is collected and stored at -80° C. until determination of viral titer.
Viral titration was performed by a modification of the colorimetric assay method of M. Langlois et al., Journal of Biological Standardization, 14, 201 (1986).
More specifically, in a similar manner as described above, BHK-21/C13 cells are trypsinized and transferred to fresh media in a 96 well microtiter plate to give 20,000 cells in 100 μL of media per well. The cells in the prepared plate are incubated at 37° C. for 2 hours. During that time, the viral sample is thawed and sonicated gently for 15 seconds, and log dilutions of the sample are prepared (1/5 sequential: 50 μL of the sample plus 200 μL of BBMT medium, sequential dilutions being done with a multichannel pipette.
On completion of the above 2 hour incubation of the BHK-21/C13 cells, the media is replaced with alpha-MEM medium supplemented with 3% (v/v) FBS. The cells are now ready to be infected with the various sample dilutions of virus. Aliquots (50 μL) of the various dilutions are transferred into the appropriate wells of the plate. The resulting infected cells are incubated for 2 days at 37° C. Then 50 μL of a 0.15% (v/v) solution of neutral red dye in Hank's Balanced Salt Solution (pH 7.3, Gibco Canada Inc.) is added to each well. The prepared plate is incubated for 45 minutes at 37° C. Medium from each well is then aspirated and the cells are washed once with 200 μL of Hank's Balanced Salt Solution. After the wash, the dye is released from the cells by the addition of 100 μL of a 1:1 mixture of 0.1M Sorensen's citrate buffer (pH 4.2) and ethanol. [Sorensen's citrate buffer is prepared as follows: Firstly, a 0.1M disodium citrate solution is prepared by dissolving citric acid monohydrate (21 g) in 1N aqueous NaOH (200 mL) and adding sufficient filtered H2 O to make 1 L. Secondly, the 0.1M disodium citrate solution (61.2 mL) is mixed with 0.1N aqueous HCl (38.8 mL) and the pH of the resulting solution is adjusted to 4.2 if necessary.] […]

[1] = in vivo; cited from earlier work

Nc1nc2c(ncn2COCCO)c(=O)[nH]1 [acyclovir, 9-[(2-hydroxyethoxy)methyl]guanine]
IC50 (HSV-2; Human alphaherpesvirus 2, BHK21 (C13), 29 h, agent alone, HSV-2 in BHK-21/C13 cells, 29 hours incubation, read-out: IC50, concentration causing 50% inhibition of virus replication): 1800 nM
IC50 (HSV-2; Human alphaherpesvirus 2, BHK21 (C13), +20 μM of peptide, HSV-2 in BHK-21/C13 cells, read-out: IC50 of acyclovir): 700 nM
IC50 (HSV-2; Human alphaherpesvirus 2, BHK21 (C13), +30 μM of peptide, HSV-2 in BHK-21/C13 cells, read-out: IC50 of acyclovir): 500 nM
IC50 (HSV-2; Human alphaherpesvirus 2, BHK21 (C13), +40 μM of peptide, HSV-2 in BHK-21/C13 cells, read-out: IC50 of acyclovir): 110 nM
IC50 (HSV-2; Human alphaherpesvirus 2, BHK21 (C13), +50 μM of peptide, HSV-2 in BHK-21/C13 cells, read-out: IC50 of acyclovir): 90 nM
side effects [1]: skin rashes and renal impairment

CC(C)[C@@H](C(=O)N[C@H](C(=O)N[C@@H](CC(=O)N1CCCC1)C(=O)N[C@H](C(=O)N[C@H](CO)CC(C)(C)C)C1(C(=O)O)CCCC1)C(C)(C)C)N(C)C(=O)CCc1ccccc1 [peptide, PhCH2 CH2 CO--N-Me-Val-Tbg-Asp(pyrrolidino)-Asp(cyPn)-{(S)-NHCH[CH2 C(CH3)3 ]CH2 OH}] (Hydrocinnamoyl-[NMeV][Tle]D(Pyrrolidide)[Asp(3,3-(CH2)4)]-{Leu(γ-Me)ol})
IC50 (HSV-2; 29 h): 80000 nM
